Like-named read-outs stand apart in the source and are kept apart here.
Experiments:
[1] = biological target: picrotoxin binding site on GABAA receptors; test: [35S]-TBPS displacement (inhibition of [35S]-TBPS binding); details: mean ± SEM, duplicate experiments performed in triplicate
Protocol: The IC50 values for non-competitive displacers of [^35S]-TBPS from the picrotoxin binding site on GABAA receptors are reported in Table 1.
Results presented are from duplicate experiments performed in triplicate. Error limits are calculated as standard error of the mean. Methods used are known in the art (see Jiang, X., et al., Neurosteroid analogues. 9. Conformationally constrained pregnanes: structure-activity studies of 13,24-cyclo-18,21-dinorcholane analogues of the GABA modulatory and anesthetic steroids (3α,5α)- and […]. J. Med. Chem., 46: 5334-48 (2003)—the contents of which are hereby incorporated by reference in their entirety).

[2] = biological target: rat α1β2γ2L type GABAA receptors expressed in Xenopus laevis oocytes (Rattus norvegicus (Rat), UniProt P62813+P63138, INS375LLRMFSFK); test: Potentiation of GABA-mediated chloride currents, oocyte electrophysiology; type: cell-based; details: ± SEM; for Oocyte electrophysiology 0.1 μM (ratio of currents in presence/absence of compound): 0.1 μM compound; for Oocyte electrophysiology 0.1 μM (ratio of currents in presence/absence of compound) / Oocyte electrophysiology 1.0 μM (ratio of currents in presence/absence of compound) / Oocyte electrophysiology 10 μM (ratio of currents in presence/absence of compound): 2 μM GABA, N>=4; for Oocyte electrophysiology 1.0 μM (ratio of currents in presence/absence of compound): 1.0 μM compound; for Oocyte electrophysiology (gating) 10 μM (ratio of compound only current/2 μM GABA current): 10 μM compound in the absence of GABA; for Oocyte electrophysiology 10 μM (ratio of currents in presence/absence of compound): 10 μM compound
Protocol: The compounds of the present disclosure were evaluated for the ability to potentiate chloride currents mediated by 2 μM GABA at rat α1β2γ2L type GABAA receptors expressed in Xenopus laevis oocytes and the results are shown in Table 2.
The GABA concentration used for the control response was 2 μM. Each compound was evaluated on at least four different oocytes at the concentrations indicated, and the results reported are the ratio of currents measured in the presence/absence of added compound. Gating represents direct current gated by 10 μM compound in the absence of GABA, and this current is reported as the ratio of compound only current/2 μM GABA current. Error limits are calculated as standard error of the mean (N≧4). Methods used are known in the art (see Jiang, X., et al.).

[3] = system: Tadpole; test: Tadpole loss of righting (LRR) and loss of swimming (LSR) reflexes; type: in vivo; details: ± SEM
Protocol: Table 3 discloses the anesthetic effects of the compounds of the present disclosure. In particular, the anesthetic effect of the compounds of the present disclosure on Loss of Righting Reflex (LRR) and Loss of Swimming Reflex (LSR).
Methods used are known in the art (see Jiang, X., et al.). Error limits are calculated as standard error of the mean (N=10 or more animals at each of five or more different concentrations).

[4] = loss of righting reflex, read-out: Tadpole LRR EC50
[5] = loss of swimming reflex, read-out: Tadpole LSR EC50

SMILES | IC50 [1] | Oocyte electrophysiology 0.1 μM (ratio of currents in presence/absence of compound) [2] | Oocyte electrophysiology 1.0 μM (ratio of currents in presence/absence of compound) [2] | Oocyte electrophysiology (gating) 10 μM (ratio of compound only current/2 μM GABA current) [2] | Oocyte electrophysiology 10 μM (ratio of currents in presence/absence of compound) [2] | EC50 [3, 4] | EC50 [3, 5]
C[C@]12C[C@H]3CCC4C[C@@H](O)CC[C@H]4[C@@H]3C[C@@H]1CCC2=O (stereo partly shown) [MQ-36] | 1.73 µM | 1.11 ± 0.09 | 1.22 ± 0.05 | −0.06 ± 0.06 | 3.81 ± 0.45 | 7.9 ± 4.45 µM | > 30 µM
C[C@]12C[C@H]3CC[C@@H]4C[C@@H](O)CC[C@H]4[C@@H]3C[C@@H]1CC[C@@H]2C#N [MQ-38] | 0.052 ± 0.007 µM | 1.51 ± 0.19 | 6.92 ± 1.29 | 0.51 ± 0.48 | 12.50 ± 1.98 | 0.38 ± 0.06 µM | 0.87 µM
C[C@@]12CC3CC[C@H]4C[C@H](O)CCC4C3CC1CCC2=O (stereo partly shown) [MQ-47] | 1.33 µM | 1.10 ± 0.20 | 1.50 ± 0.28 | −0.01 ± 0.03 | 6.42 ± 1.11 | 3.76 ± 5.22 µM | > 10 µM
C[C@]12C[C@H]3CC[C@@H]4C[C@@H](O)CC[C@H]4[C@@H]3C[C@@H]1CC/C2=C\C#N [MQ-32] | 0.147 ± 0.009 µM | 1.64 ± 0.02 | 3.21 ± 0.13 | 0.12 ± 0.01 | 8.77 ± 1.65 | 0.36 ± 0.13 µM | 1.07 µM
C[C@@]12C[C@@H]3CC[C@@H]4C[C@H](O)CC[C@@H]4[C@H]3C[C@H]1CCC2=O [MQ-51] | 5.86 µM | 0.97 ± 0.03 | 1.02 ± 0.02 | 0.08 ± 0.08 | 1.59 ± 0.11 | > 10 µM | > 10 µM
CC(=O)[C@@H]1CC[C@@H]2C[C@H]3[C@@H](CC[C@H]4C[C@H](O)CC[C@@H]43)C[C@]21C [MQ-50] | 1.06 µM | 1.02 ± 0.01 | 1.18 ± 0.02 | 0.0 ± 0.0 | 1.98 ± 0.07 | 2.01 ± 1.3 µM | 10 µM
C[C@]12C[C@H]3CC[C@@H]4C[C@@H](O)CC[C@H]4[C@@H]3C[C@@H]1CC/C2=C/C#N [MQ-31] | 0.061 ± 0.004 µM | 1.49 ± 0.09 | 3.93 ± 0.20 | 0.02 ± 0.02 | 8.25 ± 0.71 | 0.43 ± 0.08 µM | 1.04 µM
C[C@]12C[C@H]3CC[C@@H]4C[C@@H](O)CC[C@H]4[C@@H]3C[C@@H]1CC[C@@H]2[N+](=O)[O-] [MQ-33] | 0.062 ± 0.006 µM | 1.68 ± 0.10 | 5.30 ± 0.75 | 0.02 ± 0.01 | 9.08 ± 1.83 | 0.24 ± 0.01 µM | 0.55 ± 0.01 µM
C[C@@]12CC[C@H](O)C[C@@H]1CC[C@@H]1C[C@]3(C)C(=O)CCC3C[C@H]12 (stereo partly shown) [MQ-83] | 0.748 ± 0.103 µM | 0.85 ± 0.07 | 1.03 ± 0.06 | 0.1 ± 0.2 | 6.35 ± 0.81 | 2.19 ± 0.44 µM | 5.48 ± 0.12 µM
C[C@@]12CC3CCC4C[C@H](O)CCC4C3CC1CC[C@H]2C#N (stereo partly shown) [MQ-49] | 1.58 µM | 0.92 ± 0.01 | 1.02 ± 0.01 | 0.02 ± 0.01 | 1.86 ± 0.06 | 2.4 ± 0.76 µM | 5.48 ± 0.12 µM
C[C@@]12CC[C@H](O)C[C@H]1CC[C@@H]1C[C@]3(C)C(C#N)=CCC3CC12 (stereo partly shown) [MQ-86] | 0.043 ± 0.003 µM | 2.25 ± 0.11 | 10.95 ± 1.05 | 0.16 ± 0.03 | 19.64 ± 2.06 | 0.38 ± 0.05 µM | 0.55 ± 0.01 µM
C[C@]12C[C@H]3CC[C@@H]4C[C@@H](O)CCC4C3CC1CC[C@@]21CO1 (stereo partly shown) [MQ-37] | 0.046 ± 0.004 µM | 1.91 ± 0.17 | 16.12 ± 2.24 | 0.54 ± 0.44 | 27.57 ± 5.45 | 0.16 µM | 0.54 ± 0.01 µM
C[C@@]12CC3CCC4C[C@H](O)CCC4C3CC1CC[C@]21CO1 (stereo partly shown) [MQ-54] | 1.99 µM | 1.01 ± 0.05 | 4.03 ± 0.31 | 0.05 ± 0.01 | 11.41 ± 1.18 | 3.34 ± 0.11 µM | 5.48 ± 0.2 µM
